biological target: T1, recombinant LRRK2 kinase (Homo sapiens, UniProt Q5S007); assay: LRRK2 kinase inhibition (Kinase-Glo luminescence); format: biochemical; conditions: IC50 grade; 25 μmol/L ATP, LRRKtide, 30° C. 2 hours; read-out: Enzyme activity LRRK2
T1 construct: purchased Signal Chem, Richmond, BC, Canada
Experimental: Upon completion of the reaction, an equal amount of Kinase-Glo (Promega, Madison, Wis.) solution was added thereto, followed by reaction for 40 minutes. A detection solution was added thereto, followed by further reaction at room temperature for 30 minutes. Then, IC50 of kinase was calculated by measuring the amount of luciferase using a microplate ELISA reader (Bio-Tek).

T1 sequence (Q5S007 whole entry): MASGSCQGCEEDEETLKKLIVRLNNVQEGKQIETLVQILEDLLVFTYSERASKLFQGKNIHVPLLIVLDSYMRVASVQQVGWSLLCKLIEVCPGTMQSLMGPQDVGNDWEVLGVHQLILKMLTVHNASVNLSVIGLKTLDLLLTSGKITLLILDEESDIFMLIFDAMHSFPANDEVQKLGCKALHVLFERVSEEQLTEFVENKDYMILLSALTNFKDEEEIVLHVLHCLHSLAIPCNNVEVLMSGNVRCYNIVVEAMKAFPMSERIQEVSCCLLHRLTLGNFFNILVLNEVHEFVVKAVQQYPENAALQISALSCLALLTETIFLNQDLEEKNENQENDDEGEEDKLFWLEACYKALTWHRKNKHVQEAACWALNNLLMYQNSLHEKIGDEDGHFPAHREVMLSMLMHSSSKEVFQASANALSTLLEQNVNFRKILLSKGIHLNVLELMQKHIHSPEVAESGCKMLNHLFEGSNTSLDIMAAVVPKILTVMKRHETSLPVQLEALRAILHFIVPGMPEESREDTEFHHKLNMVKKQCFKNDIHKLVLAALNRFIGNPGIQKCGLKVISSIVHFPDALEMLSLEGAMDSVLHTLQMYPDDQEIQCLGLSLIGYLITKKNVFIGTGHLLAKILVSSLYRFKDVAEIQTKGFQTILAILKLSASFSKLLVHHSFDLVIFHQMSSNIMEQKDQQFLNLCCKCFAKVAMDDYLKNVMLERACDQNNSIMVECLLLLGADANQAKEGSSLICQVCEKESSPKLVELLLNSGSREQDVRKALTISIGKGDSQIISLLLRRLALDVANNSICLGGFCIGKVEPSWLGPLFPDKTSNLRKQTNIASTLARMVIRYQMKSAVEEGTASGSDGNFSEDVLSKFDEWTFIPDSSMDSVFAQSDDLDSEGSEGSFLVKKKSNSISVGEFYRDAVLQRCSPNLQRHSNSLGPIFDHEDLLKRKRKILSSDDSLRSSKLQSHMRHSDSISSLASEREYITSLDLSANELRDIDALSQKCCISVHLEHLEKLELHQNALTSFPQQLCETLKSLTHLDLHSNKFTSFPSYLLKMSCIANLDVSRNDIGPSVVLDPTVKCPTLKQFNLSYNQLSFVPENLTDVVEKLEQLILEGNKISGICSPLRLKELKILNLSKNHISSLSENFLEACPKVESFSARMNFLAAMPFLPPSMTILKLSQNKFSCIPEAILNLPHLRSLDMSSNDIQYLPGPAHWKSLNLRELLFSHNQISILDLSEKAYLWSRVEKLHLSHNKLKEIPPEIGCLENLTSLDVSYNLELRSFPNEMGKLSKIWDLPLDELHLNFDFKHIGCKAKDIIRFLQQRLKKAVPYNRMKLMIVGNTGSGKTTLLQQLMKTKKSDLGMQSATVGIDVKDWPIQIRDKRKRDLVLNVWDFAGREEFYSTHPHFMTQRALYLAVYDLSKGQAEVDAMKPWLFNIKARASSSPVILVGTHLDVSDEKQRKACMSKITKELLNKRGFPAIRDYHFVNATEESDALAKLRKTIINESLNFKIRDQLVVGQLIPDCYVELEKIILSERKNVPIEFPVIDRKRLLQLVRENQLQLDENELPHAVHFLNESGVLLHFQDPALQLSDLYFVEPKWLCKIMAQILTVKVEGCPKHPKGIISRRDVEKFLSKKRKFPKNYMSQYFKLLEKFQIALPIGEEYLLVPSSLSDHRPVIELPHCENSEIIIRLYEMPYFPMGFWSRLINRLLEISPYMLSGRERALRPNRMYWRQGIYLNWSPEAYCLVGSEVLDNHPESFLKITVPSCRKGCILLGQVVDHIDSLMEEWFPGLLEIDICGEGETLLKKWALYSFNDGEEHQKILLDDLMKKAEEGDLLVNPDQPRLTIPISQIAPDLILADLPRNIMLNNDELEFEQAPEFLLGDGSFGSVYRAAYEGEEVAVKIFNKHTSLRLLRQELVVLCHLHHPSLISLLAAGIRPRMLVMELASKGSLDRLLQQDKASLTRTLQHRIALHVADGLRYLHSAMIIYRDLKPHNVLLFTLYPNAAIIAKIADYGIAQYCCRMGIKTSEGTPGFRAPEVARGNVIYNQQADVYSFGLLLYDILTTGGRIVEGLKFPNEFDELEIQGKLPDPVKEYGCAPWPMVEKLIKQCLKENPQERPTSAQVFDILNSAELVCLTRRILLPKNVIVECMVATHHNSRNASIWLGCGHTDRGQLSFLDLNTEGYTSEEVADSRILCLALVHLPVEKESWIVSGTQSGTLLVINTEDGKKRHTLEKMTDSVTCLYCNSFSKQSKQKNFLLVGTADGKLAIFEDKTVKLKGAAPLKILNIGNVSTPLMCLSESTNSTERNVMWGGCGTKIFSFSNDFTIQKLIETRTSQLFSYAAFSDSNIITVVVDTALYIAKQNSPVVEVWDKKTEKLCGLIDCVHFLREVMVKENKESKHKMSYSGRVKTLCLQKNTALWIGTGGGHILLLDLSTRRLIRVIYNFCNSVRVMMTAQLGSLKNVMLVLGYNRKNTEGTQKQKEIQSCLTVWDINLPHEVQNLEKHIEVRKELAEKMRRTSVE

Row | SMILES | IC50 [nM]
1 | CCNc1nc(Nc2ccc(C(=O)N3CCOC(C)C3)cc2OC)nc2[nH]cc(C(F)(F)F)c12 (stereo in doubt) [Example 111, (S)-(4-((4-(ethylamino)-5-(trifluoromethyl)-7H-pyrrolo[2,3-d]pyrimidine-2-yl)amino)-3-methoxyphenyl)(2-methylmorpholino)methanone] | 10 to 100
2 | CNc1nc(Nc2ccc(C(=O)N3CCC(N4CCOCC4)CC3)cc2OC)nc2[nH]cc(C#N)c12 [Example 9, 2-((2-methoxy-4-(4-morpholinylpiperidine-1-carbonyl)phenyl)amino)-4-(methylamino)-7H-pyrrolo[2,3-d]pyrimidine-5-carbonitrile] | < 10
3 | CNc1nc(Nc2cc(F)c(C(=O)N3CCOCC3)cc2OC)nc2[nH]cc(C#N)c12 [Example 10, 2-((5-fluoro-2-methoxy-4-(morpholine-4-carbonyl)phenyl)amino)-4-(methylamino)-7H-pyrrolo[2,3-d]pyrimidine-5-carbonitrile] | < 10
4 | CNc1nc(Nc2cc(F)c(C(=O)N3CCC(N4CCOCC4)CC3)cc2OC)nc2[nH]cc(C#N)c12 [Example 11, 2-((5-fluoro-2-methoxy-4-(4-morpholinopiperidine-1-carbonyl)phenyl)amino)-4-(methylamino)-7H-pyrrolo[2,3-d]pyrimidine-5-carbonitrile] | < 10
5 | CCCNc1nc(Nc2ccc(C(=O)N3CCOCC3)cc2OC)nc2[nH]cc(C#N)c12 [Example 12, 2-((2-methoxy-4-(morpholine-4-carbonyl)phenyl)amino)-4-(propylamino)-7H-pyrrolo[2,3-d]pyrimidine-5-carbonitrile] | < 10
6 | CCCNc1nc(Nc2ccc(C(=O)N3CCC(N4CCOCC4)CC3)cc2OC)nc2[nH]cc(C#N)c12 [Example 13, 2-((2-methoxy-4-(4-morpholinopiperidine-1-carbonyl)phenyl)amino)-4-(propylamino)-7H-pyrrolo[2,3-d]pyrimidine-5-carbonitrile] | < 10
7 | CCCNc1nc(Nc2cc(F)c(C(=O)N3CCOCC3)cc2OC)nc2[nH]cc(C#N)c12 [Example 14, 2-((5-fluoro-2-methoxy-4-(morpholine-4-carbonyl)phenyl)amino)-4-(propylamino)-7H-pyrrolo[2,3-d]pyrimidine-5-carbonitrile] | 10 to 100

More lines, now with the values ahead:

Row | IC50 [nM] | SMILES
8 | < 10 | CCNc1nc(Nc2cc(OC)c(OC)c(OC)c2)nc2[nH]cc(C#N)c12 [Example 3, 4-(ethylamino)-2-((3,4,5-trimethoxyphenyl)amino)-7H-pyrrolo[2,3-d]pyrimidine-5-carbonitrile]
9 | < 10 | CCNc1nc(Nc2cnn(C)c2)nc2[nH]cc(C#N)c12 [Example 4, 4-(ethylamino)-2-((1-methyl-1H-pyrazole-4-yl)amino)-7H-pyrrolo[2,3-d]pyrimidine-5-carbonitrile]
10 | < 10 | CCNc1nc(Nc2ccn(C)n2)nc2[nH]cc(C#N)c12 [Example 5, 4-(ethylamino)-2-((1-methyl-1H-pyrazole-3-yl)amino)-7H-pyrrolo[2,3-d]pyrimidine-5-carbonitrile]
11 | < 10 | CCNc1nc(Nc2cc(F)c(C(=O)N3CCOCC3)cc2OC)nc2[nH]cc(C#N)c12 [Example 6, 4-(ethylamino)-2-((5-fluoro-2-methoxy-4-(morpholine-4-carbonyl)phenyl)amino)-7H-pyrrolo[2,3-d]pyrimidine-5-carbonitrile]
12 | < 10 | CCNc1nc(Nc2cc(F)c(C(=O)N3CCC(N4CCOCC4)CC3)cc2OC)nc2[nH]cc(C#N)c12 [Example 7, 4-(ethylamino)-2-((5-fluoro-2-methoxy-4-(4-morpholinopiperidine-1-carbonyl)phenyl)amino)-7H-pyrrolo[2,3-d]pyrimidine-5-carbonitrile]
13 | < 10 | CCNc1nc(Nc2ccc(C(=O)N3CCC(N4CCOCC4)CC3)cc2OC)nc2[nH]cc(C#N)c12 [Example 8, 4-(ethylamino)-2-((2-methoxy-4-(4-morpholinopiperidine-1-carbonyl)phenyl)amino)-7H-pyrrolo[2,3-d]pyrimidine-5-carbonitrile]
